The term EC50 denotes the concentration giving half of the maximal effect. Broadly, the IC50 is the concentration that inhibits the measured activity by half. In general, LD50 refers to the dose at which mortality reaches 50%.

Where two headings read alike, the source gives them in different places. A value given as a limit tells only on which side of the number the result lay.

We go through one molecule from publication PMC6983054, “Toxicity and Antitumor Activity of a Thiophene–Acridine Hybrid” (Molecules, 2019).

Data set [1] is described as follows: Fish embryo acute toxicity (FET) test. Also noted: species or system zebrafish (Danio rerio). To be noted: wild-type, in vivo, zebrafish embryos, 96 h exposure; for EC50 at 96 h: zebrafish. As to the method: The zebrafish (Danio rerio) embryos were provided by the zebrafish facility established at Department of Molecular Biology, Federal University of Paraíba (João Pessoa, Brazil). To obtain embryos, an egg trap was placed overnight in a tank containing male and female specimens (1:1 ratio) of a wild-type strain one day prior to testing. One hour after the beginning of the light cycle (14 h light/10 h dark), eggs were collected and rinsed with E3 medium (5 mM NaCl, 0.17 mM KCl, 0.33 mM CaCl2, and 0.33 mM MgSO4). Viable fertilized eggs were selected using a stereomicroscope (80× magnification), and embryotoxicity analysis was carried out. All experiments were approved by the Committee on Ethical Use of Animals in Research (CEUA) of Federal University of Paraíba, Brazil, certified by number 5900310718/2018.
The fish embryo acute toxicity (FET) test was conducted with ACS03 according to OECD’s guideline no. 236, with slight modifications. Zebrafish embryos of up to 3 hpf (hours post fertilization) of age were initially exposed to 250–15.62 µM. For each concentration tested, we prepared a 96-well plate containing 20 fertilized eggs (1 embryo per well) exposed to the test sample and 4 embryos exposed only to E3 medium (internal controls). The exposure was performed for 96 h, and the embryos were analyzed every 24 h for the apical endpoints: egg coagulation; lack of somite formation; lack of detachment of the tail-bud from the yolk sac; and lack of heartbeat. In the presence of any of these endpoints, the embryo/larva was considered dead. The number of deaths was used to calculate the LC50 (median lethal concentration). Sublethal effects were also recorded in order to obtain the EC50 (median effect concentration), them being spinal deformation, reduction in larval length, and pericardial edema. The exposures were under static conditions (without renovation of test sample or E3 medium). Observations were performed in a stereomicroscope (80× magnification) and photographed (Zeiss). After 96 h, surviving larvae were euthanized with eugenol and properly discarded.
The results are expressed as the mean ± SEM. Statistical analysis of data was performed using analysis of variance (ANOVA), followed by Tukey’s test (p < 0.05). For zebrafish embryo cytotoxicity, the median lethal concentration (LC50) values and the median effect concentration (EC50) values were calculated by probit regression analysis.

Data set [2] concerns HeLa (human cervical cancer cell line). In words: MTT cytotoxicity assay, HeLa. Type of data set: cell-based. To be noted: 72 h. The text has this: (§1) Colorectal carcinoma cells (HCT-116), chronic myelogenous leukemia (K562), and acute promyelocytic leukemia (HL-60) were generously provided by Dr. Manoel de Moraes (Federal University of Ceará, Fortaleza, Brazil) and cultured in Roswell Park Memorial Institute 1640 (RPMI 1640; Sigma Aldrich, St. Louis, MO, USA) medium supplemented with 10% fetal bovine serum (GIBCO, Grand Island, NY, USA) and 1% penicillin–streptomycin (Sigma Aldrich, St. Louis, MO, USA). […]
(§2) MTT (3-(4,5-dimethylthiazol-2-yl)-2,5-diphenyltetrazolium bromide) reduction assay was used to evaluate the cytotoxicity of ACS03 and its precursors (2-amino-5,6,7,8-tetrahydro-4H-cyclohepta[b]thiophene-3-carbonitrile and 6,9-dichloro-2-methoxyacridine) against tumor and non-tumor cell lines and PBMC. […] The optical density was measured using a microplate spectrophotometer reader (Microplate reader BioTek Instruments, Sinergy HT, Winooski, VT, USA) at λ = 570 nm and used to calculate the IC50 (half maximal inhibitory concentration).
Background: Tetrazolium dyes change colour on reduction, which living cells bring about.

In the next data set the test system is erythrocytes. Also noted: method as in PMID 29415325. To be noted: cited from earlier work.
The nature of data set [3]: Acute preclinical toxicity in mice (OECD 423). In kind it is in vivo, mice (Mus musculus). To be noted: female, Swiss albino, mouse, in vivo, ip, estimated, OECD 423, read-out: LD50 (lethal dose 50%). As to the method: (§3) Female Swiss albino mice (Mus musculus) weighing between 28 and 32 g, with an approximate age of 60 days and obtained from the Dr. Thomas George Bioterium (Research Institute in Drugs and Medicines/Federal University of Paraíba, Paraíba, Brazil) were used. The animals were grouped in polyethylene cages containing six animals, with free access to food (Purina® feed pellets, St. Louis, MO, USA) and water. The animals were kept under controlled conditions (21 ± 1 °C, 12 h/12 h off light/dark cycle). All experiments were approved by the Committee on Ethical Use of Animals in Research (CEUA) of Federal University of Paraíba, Brazil, certified by number 093/2017.
(§4) The acute toxicity test in mice was performed according to the Guideline for Testing of Chemicals no. 423 of the Organization for Economic Co-operation and Development (OECD). Mice were divided into different groups (n = 3 females/group). The control group received vehicle alone (12% (v/v) Tween 80 in saline), and ACS03 was tested in single doses of 300 or 2000 mg/kg, intraperitoneally (i.p.). The dose responsible for the death of 50% of the experimental animals (LD50) was estimated.

The subject of a further data set is Swiss albino mice. Nature of the data set: Acute preclinical toxicity in mice (OECD 423). In kind it is in vivo, mice (Mus musculus). As to the method:
as §3, §4

For data set [4], the system named is HCT-116 cells (human colon carcinoma cell line). Nature of the data set: MTT cytotoxicity assay, HCT-116. Type of data set: cell-based. To be noted: HCT-116, 72 h. The source says:
Colorectal carcinoma cells (HCT-116), chronic myelogenous leukemia (K562), and acute promyelocytic leukemia (HL-60) were generously provided by Dr. Manoel de Moraes (Federal University of Ceará, Fortaleza, Brazil) and cultured in Roswell Park Memorial Institute 1640 (RPMI 1640; Sigma Aldrich, St. Louis, MO, USA) medium supplemented with 10% fetal bovine serum (GIBCO, Grand Island, NY, USA) and 1% penicillin–streptomycin (Sigma Aldrich, St. Louis, MO, USA). Human keratinocyte cells (HaCaT; provided by Dr. Jaciana Aguiar from Federal University of Pernambuco, Recife, Pernambuco, Brazil), cervical cancer cells (HeLa; purchased from the cell bank of Rio de Janeiro, Rio de Janeiro, Brazil), and breast cancer cells (MCF-7; provided by Dr. João Ernesto de Carvalho from University of Campinas, Campinas, São Paulo, Brazil) were grown and maintained in Dulbecco’s Modified Eagle’s Medium (DMEM; Sigma Aldrich, St. Louis, MO, USA) supplemented with 10% fetal bovine serum (GIBCO, Grand Island, NY, USA) and 1% penicillin–streptomycin (Sigma Aldrich, St. Louis, MO, USA). All cell types were maintained in 5% CO2 at 37 °C with humidity.
MTT (3-(4,5-dimethylthiazol-2-yl)-2,5-diphenyltetrazolium bromide) reduction assay was used to evaluate the cytotoxicity of ACS03 and its precursors (2-amino-5,6,7,8-tetrahydro-4H-cyclohepta[b]thiophene-3-carbonitrile and 6,9-dichloro-2-methoxyacridine) against tumor and non-tumor cell lines and PBMC. For the MTT assay, cell lines (3 × 10^5 cells/mL) and PBMC (1 × 10^6 cells/mL) were seeded on 96-well plates and cultured for 24 h. ACS03 (3.125–200 µM) was added to the cell cultures and incubated for 72 h. After incubation, 110 µL of the supernatant was removed and 10 μL of the MTT reagent (Sigma Aldrich, St. Louis, MO, USA) was added to each well, and the plates were then incubated at 37 °C. Following 3 h incubation, 100 μL of sodium dodecyl sulfate (SDS) was added to dissolve the formazan crystals produced and left overnight to incubate. The amount of formazan is proportional to the number of viable cells present. The optical density was measured using a microplate spectrophotometer reader (Microplate reader BioTek Instruments, Sinergy HT, Winooski, VT, USA) at λ = 570 nm and used to calculate the IC50 (half maximal inhibitory concentration).

For data set [5], the system named is HaCat (Human immortalized keratinocytes cell line). In words: MTT cytotoxicity assay, HaCat non-tumor cells. In kind it is cell-based. To be noted: 72 h.
Excerpt: as §1, §2

Data set [6] deals with HL-60 (human promyelocytic leukemia cell line). In words: MTT cytotoxicity assay, HL-60. Type of data set: cell-based. To be noted: HL-60, MTT, 72 h.
Excerpt: as §1, §2

Turning to `COc1ccc2nc3cc(Cl)ccc3c(Nc3sc4c(c3C#N)CCCCC4)c2c1` [ACS03, 2-((6-Chloro-2-methoxyacridin-9-yl)amino)-5,6,7,8-tetrahydro-4H-cyclohepta[b]-thiophene-3-carbonitrile], the LC50 at 96 h in data set [1] (read-out: LC50 (median lethal concentration)) was greater than 1000 µM. Besides, the EC50 at 96 h in data set [1] (read-out: EC50 pericardial edema) was greater than 1000 µM; in data set [1] (read-out: EC50 reduction in larval length), 126 µM; in data set [1] (read-out: EC50 spinal deformation), 172 µM. In addition, the IC50 was greater than 50 µM in data set [2], 23.1 ± 1.03 µM in data set [4], 62.2 ± 1.15 µM in data set [5] and greater than 50 µM in data set [6]. Besides, the cytotoxicity against erythrocytes entry in the data set on erythrocytes is reported as “no cytotoxicity”. The 50% lethal dose (LD50) in data set [3] was greater than 5000 mg/kg. The “death in acute toxicity assay” value in the data set with Swiss albino mice (single dose 300 mg/kg i.p., test repeated) is given as “no death”; with Swiss albino mice (single dose 2000 mg/kg i.p., carried out twice), “did not induce death”.
